The record followed here is patent publication US11286263B2, “Macrocyclic fluorine substituted indole derivatives” (The Broad Institute, Inc., priority 2017, dated 2022).

One assay concerns SUDHL10. Kind of assay: Induction of caspase-3/7 activity, SUDHL10 (Assay 4). Format: cell-based. The conditions noted are these: Homo sapiens, SU-DHL10, 3 h, SUDHL10 cells, Caspase-Glo 3/7, median. The procedure, abridged:
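DLBCL lines treated with compounds for 3 h at 37° C.; caspase-3/7 activity read by Caspase-Glo 3/7 luminescence. Medium-only background subtracted; EC50 fitted with bottom fixed at 1 and top set to reference compound's maximal induction.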

For a further assay, the system named is SUDHL5. Kind of assay: Antiproliferation assay SUDHL5 (Assay 7). The conditions noted are these: Homo sapiens, SU-DHL-5, 72 h, SUDHL5 cells, CellTiter-Glo, median, read-out: IC50 Antiproli SUDHL5 [M] (median). The class given is cell-based. The method, boiled down: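 Luminescent ATP-based viability (CellTiter-Glo) measured after 72 h of compound treatment at 37 °C. A day 0 plate recorded at time zero served as the starting reference for proliferation.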

In another assay the target is MCL-1 (Homo sapiens (Human), UniProt Q07820, K194A/K197A/R201A). Kind of assay: Protein-protein interaction assay MCL-1/Noxa BH3 peptide (MCL-1 assay), TR-FRET. The class given is binding. The conditions noted are these: MCL-1/Noxa BH3 peptide TR-FRET; median. The method, boiled down:
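TR-FRET competition between MBP-MCL-1 (173-321, 1 nM) and biotin-Noxa BH3 peptide (1 nM) with anti-MBP-Eu/streptavidin-XL665; 11 compound levels 0.1 nM–20 μM, 10 min preincubation. Incubated 1 h at 22 °C then overnight at 4 °C, pH 7 Tris buffer. 665/620 ratio normalized to DMSO and no-MCL-1; 4-parameter IC50.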
(In general: In TR-FRET formats the signal depends on donor and acceptor labels being close together.)

Sequence of MCL-1 (Q07820 whole entry K194A/K197A/R201A, looked up): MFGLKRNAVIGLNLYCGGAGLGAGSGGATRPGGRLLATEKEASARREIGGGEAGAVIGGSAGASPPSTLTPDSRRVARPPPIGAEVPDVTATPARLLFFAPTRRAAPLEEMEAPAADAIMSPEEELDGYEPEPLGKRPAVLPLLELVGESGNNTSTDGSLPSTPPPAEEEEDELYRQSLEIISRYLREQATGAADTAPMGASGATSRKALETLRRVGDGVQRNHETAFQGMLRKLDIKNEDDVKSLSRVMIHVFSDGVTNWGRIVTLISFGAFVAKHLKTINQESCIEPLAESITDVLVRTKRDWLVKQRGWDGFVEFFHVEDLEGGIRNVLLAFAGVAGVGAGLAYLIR

Usually EC50 stands for the concentration needed to bring the measured effect to its halfway point. Lower therefore signals greater potency. In general, IC50 refers to the concentration needed to halve the response being measured. In the case of `Cc1c2c(nn1C)COC/C=C\Cn1c(C(=O)O)c(CCCOc3cccc4ccccc34)c3ccc(F)c-2c31` (racemic) [Example 1, (rac)-(11Z)-4-fluoro-2,3-dimethyl-7-[3-(naphthalen-1-yloxy)propyl]-2,10,13,15-tetrahydro-pyrazolo[4′,3′:9,10][1,6]oxazacycloundecino[8,7,6-hi]indole-8-carboxylic acid], the EC50 with SUDHL10 amounted to 2.5 µM. The IC50 in the assay on SUDHL5 came to 9e-07 M; on MCL-1 it was 0.0018 µM.
The like results for `Cc1c2c(nn1C)COCCCCn1c(C(=O)O)c(CCCOc3cccc4ccccc34)c3ccc(F)c-2c31` (racemic) [Example 2, (rac)-4-fluoro-2,3-dimethyl-7-[3-(naphthalen-1-yloxy)propyl]-2,10,11,12,13,15-hexahydro-pyrazolo[4′,3′:9,10][1,6]oxazacycloundecino[8,7,6-hi]indole-8-carboxylic acid] were, in that order, 1.3 µM, 1.4e-06 M and 0.0012 µM.
For the compound `CCc1c2c(nn1C)COC/C=C\Cn1c(C(=O)O)c(CCCOc3cccc4ccccc34)c3ccc(F)c-2c31` (racemic) [Example 5, (rac)-(11Z)-3-ethyl-4-fluoro-2-methyl-7-[3-(naphthalen-1-yloxy)propyl]-2,10,13,15-tetrahydro-pyrazolo[4′,3′:9,10][1,6]oxazacycloundecino[8,7,6-hi]indole-8-carboxylic acid], the EC50 in the assay with SUDHL10 came out at 3.5 µM. For the same compound, the IC50 with SUDHL5 turned out to be 1.7e-06 M; on MCL-1, 0.0023 µM.
Regarding `Cc1nn(C)c2c1-c1c(F)ccc3c(CCCOc4cccc5ccccc45)c(C(=O)O)n(c13)C/C=C\COC2` (racemic) [Example 9, (rac)-(Z)-13-fluoro-10,12-dimethyl-1-(3-(naphthalen-1-yloxy)propyl)-4,7,9,10-tetrahydro-pyrazolo[4′,3′:9,10][1]oxa[6]azacycloundecino[8,7,6-hi]indole-2-carboxylic acid], the midpoint of the response in the assay with SUDHL10, the EC50, lay at 18 µM. Moreover, the IC50 came to 3.7e-06 M in the assay with SUDHL5 and 0.0024 µM on MCL-1.
The like results for `Cc1nn(C)c2c1-c1c(F)ccc3c(CCCOc4cccc5ccccc45)c(C(=O)O)n(c13)CCCCOC2` (racemic) [Example 10, (rac)-13-fluoro-10,12-dimethyl-1-(3-(naphthalen-1-yloxy)propyl)-4,5,6,7,9,10-hexahydro-pyrazolo[4′,3′:9,10][1]oxa[6]azacycloundecino[8,7,6-hi]indole-2-carboxylic acid] were, in that order, 7.8 µM, 1.8e-06 M and 0.0011 µM.
In turn, `CCc1nn(C)c2c1-c1c(F)ccc3c(CCCOc4cccc5ccccc45)c(C(=O)O)n(c13)C/C=C\COC2` (racemic) [Example 11, (rac)-(Z)-12-ethyl-13-fluoro-10-methyl-1-(3-(naphthalen-1-yloxy)propyl)-4,7,9,10-tetrahydro-pyrazolo[4′,3′:9,10][1]oxa[6]azacycloundecino[8,7,6-hi]indole-2-carboxylic acid] came in with an EC50 in the assay with SUDHL10 of 6.5 µM. Further, the figures for the IC50 with SUDHL5 and at MCL-1 were 2.8e-06 M and 0.0022 µM, respectively.
Regarding `Cc1c2c(nn1C)COCCCCn1c(C(=O)O)c(CCCOc3ccc(F)c4ccccc34)c3ccc(F)c-2c31` (racemic) [Example 15, (rac)-13-fluoro-1-(3-((4-fluoronaphthalen-1-yl)oxy)propyl)-11,12-dimethyl-4,5,6,7,9,11-hexahydropyrazolo[4′,3′:9,10][1]oxa[6]azacycloundecino[8,7,6-hi]indole-2-carboxylic acid], the EC50 in the assay with SUDHL10 was found to be 5.8 µM. Further, the IC50 in the assay on SUDHL5 was determined as 5.3e-07 M; on MCL-1 it was 0.0013 µM.
The like results for `Cc1c2c(nn1C)COCCCCn1c(C(=O)O)c(CCCOc3cccc4c3CCCC4)c3ccc(F)c-2c31` (racemic) [Example 18, (rac)-13-fluoro-11,12-dimethyl-1-(3-((5,6,7,8-tetrahydronaphthalen-1-yl)oxy)propyl)-4,5,6,7,9,11-hexahydropyrazolo[4′,3′:9,10][1]oxa[6]azacycloundecino[8,7,6-hi]indole-2-carboxylic acid] were, in that order, 2.3 µM, 1.2e-06 M and 0.0016 µM.
`Cc1c2c(nn1C)COCCCCn1c(C(=O)O)c(CCCOc3cccc4c3CCC4)c3ccc(F)c-2c31` (racemic) [Example 19, (rac)-1-(3-((2,3-dihydro-1H-inden-4-yl)oxy)propyl)-13-fluoro-11,12-dimethyl-4,5,6,7,9,11-hexahydropyrazolo[4′,3′:9,10][1]oxa[6]azacycloundecino[8,7,6-hi]indole-2-carboxylic acid]: the EC50 in the assay on SUDHL10 was determined as 3.8 µM. Besides, the results for the IC50 in the assay on SUDHL5 and against MCL-1 were 1e-06 M and 0.0015 µM, respectively.
With `Cc1cc(OCCCc2c(C(=O)O)n3c4c(c(F)ccc24)-c2c(nn(C)c2C)COCCCC3)cc(C)c1Cl` (racemic) [Example 20, (rac)-1-(3-(4-chloro-3,5-dimethylphenoxy)propyl)-13-fluoro-11,12-dimethyl-4,5,6,7,9,11-hexahydropyrazolo[4′,3′:9,10][1]oxa[6]azacycloundecino[8,7,6-hi]indole-2-carboxylic acid], it took 4 µM to reach a half-maximal effect with SUDHL10 (EC50). Further, the IC50 is 1.1e-06 M in the assay on SUDHL5 and 0.0015 µM on MCL-1.
In the assay on SUDHL10, `CCc1c2c(nn1C)COCCCCn1c(C(=O)O)c(CCCOc3cccc4c3CCCC4)c3ccc(F)c-2c31` (racemic) [Example 29, (rac)-12-ethyl-13-fluoro-11-methyl-1-(3-((5,6,7,8-tetrahydronaphthalen-1-yl)oxy)propyl)-4,5,6,7,9,11-hexahydropyrazolo[4′,3′:9,10][1]oxa[6]azacycloundecino[8,7,6-hi]indole-2-carboxylic acid] returned an EC50 of 1.7 µM. In addition, the IC50 came to 1.4e-06 M in the assay with SUDHL5 and 0.0015 µM against MCL-1.
As to `CCc1c2c(nn1C)COCCCCn1c(C(=O)O)c(CCCOc3cc(C)c(Cl)c(C)c3)c3ccc(F)c-2c31` (racemic) [Example 31, (rac)-1-(3-(4-chloro-3,5-dimethylphenoxy)propyl)-12-ethyl-13-fluoro-11-methyl-4,5,6,7,9,11-hexahydropyrazolo[4′,3′:9,10][1]oxa[6]azacycloundecino[8,7,6-hi]indole-2-carboxylic acid], the EC50 with SUDHL10 was 4.5 µM. Also, the half-inhibitory concentration (IC50) is 3e-06 M in the assay with SUDHL5 and 0.0018 µM against MCL-1.
Consider `Cc1nn(C)c2c1-c1c(F)ccc3c(CCCOc4cccc5cc(F)ccc45)c(C(=O)O)n(c13)CCCCOC2` (racemic) [Example 32, (rac)-13-fluoro-1-(3-((6-fluoronaphthalen-1-yl)oxy)propyl)-10,12-dimethyl-4,5,6,7,9,10-hexahydropyrazolo[4′,3′:9,10][1]oxa[6]azacycloundecino[8,7,6-hi]indole-2-carboxylic acid], for which the EC50 in the assay on SUDHL10 came out at 2.6 µM. In addition, the 50% inhibitory concentration (IC50) was found to be 8.5e-07 M in the assay with SUDHL5 and 0.0011 µM against MCL-1.
In the assay with SUDHL10, `Cc1nn(C)c2c1-c1c(F)ccc3c(CCCOc4ccc(F)c5ccccc45)c(C(=O)O)n(c13)CCCCOC2` (racemic) [Example 33, (rac)-13-fluoro-1-(3-((4-fluoronaphthalen-1-yl)oxy)propyl)-10,12-dimethyl-4,5,6,7,9,10-hexahydropyrazolo[4′,3′:9,10][1]oxa[6]azacycloundecino[8,7,6-hi]indole-2-carboxylic acid] had an EC50 of 9.1 µM. Also, the results for the IC50 with SUDHL5 and against MCL-1 were 3e-06 M and 0.0017 µM, respectively.
In the assay on SUDHL10, `Cc1nn(C)c2c1-c1c(F)ccc3c(CCCOc4cccc5c4CCCC5)c(C(=O)O)n(c13)CCCCOC2` (racemic) [Example 34, (rac)-13-fluoro-10,12-dimethyl-1-(3-((5,6,7,8-tetrahydronaphthalen-1-yl)oxy)propyl)-4,5,6,7,9,10-hexahydropyrazolo[4′,3′:9,10][1]oxa[6]azacycloundecino[8,7,6-hi]indole-2-carboxylic acid] returned a concentration giving a half-maximal response (EC50) of 5.9 µM. Besides, the IC50 with SUDHL5 was 1.7e-06 M; at MCL-1, 0.0013 µM.
Turning to `Cc1nn(C)c2c1-c1c(F)ccc3c(CCCOc4cccc5c4CCC5)c(C(=O)O)n(c13)CCCCOC2` (racemic) [Example 35, (rac)-1-(3-((2,3-dihydro-1H-inden-4-yl)oxy)propyl)-13-fluoro-10,12-dimethyl-4,5,6,7,9,10-hexahydropyrazolo[4′,3′:9,10][1]oxa[6]azacycloundecino[8,7,6-hi]indole-2-carboxylic acid], the EC50 with SUDHL10 is 20 µM. Also, the IC50 amounted to 6e-06 M with SUDHL5 and 0.0013 µM against MCL-1.
Compound `Cc1cc(OCCCc2c(C(=O)O)n3c4c(c(F)ccc24)-c2c(C)nn(C)c2COCCCC3)cc(C)c1Cl` (racemic) [Example 36, (rac)-1-(3-(4-chloro-3,5-dimethylphenoxy)propyl)-13-fluoro-10,12-dimethyl-4,5,6,7,9,10-hexahydropyrazolo[4′,3′:9,10][1]oxa[6]azacycloundecino[8,7,6-hi]indole-2-carboxylic acid] showed an EC50 in the assay on SUDHL10 of 12 µM. The IC50 in the assay with SUDHL5 was 3.2e-06 M; against MCL-1, 0.0021 µM.
`CCc1nn(C)c2c1-c1c(F)ccc3c(CCCOc4cccc5ccccc45)c(C(=O)O)n(c13)CCCCOC2` (racemic) [Example 37, (rac)-12-ethyl-13-fluoro-10-methyl-1-(3-(naphthalen-1-yloxy)propyl)-4,5,6,7,9,10-hexahydro-pyrazolo[4′,3′:9,10][1]oxa[6]azacycloundecino[8,7,6-hi]indole-2-carboxylic acid]: in the assay on SUDHL10, the EC50 was 7.2 µM. Besides, the IC50 amounted to 1.6e-06 M with SUDHL5 and 0.0012 µM against MCL-1.
